# Laboratory results: US20090032411A1, “METHOD AND SYSTEM FOR DETECTING PHARMACOLOGICALLY ACTIVE SUBSTANCES BY MEASURING MEMBRANE CURRENTS WITH EXTRACELLULAR SENSORS” (Max-Planck-Gesellschaft zur Foerderung Der Wissenschaften …, priority 2006, published 2009)
# “Also recorded” adds a separate entry of the source.
# Assays:
# Type in all cases: cell-based
# [1] = target: T1, ligand-gated ion channel 5-HT3A (Homo sapiens, UniProt P46098); assay: FET recording of the extracellular (junction) voltage signal of HEK293 cells doubly transfected with 5-HT3A and Kv1.3, ligands of 5-HT3A; conditions: for extracellular voltage signal in the cell-chip junction on application of agonist: agonist 100 μM, cells expressing both 5-HT3A and Kv1.3, FET recording; for effect on the serotonin-induced extracellular voltage signal: tropisetron 1 μM present before and during stimulation with 100 μM serotonin, doubly transfected cell
# T1 construct: host or cells: HEK293
# T1 sequence (P46098 24-478): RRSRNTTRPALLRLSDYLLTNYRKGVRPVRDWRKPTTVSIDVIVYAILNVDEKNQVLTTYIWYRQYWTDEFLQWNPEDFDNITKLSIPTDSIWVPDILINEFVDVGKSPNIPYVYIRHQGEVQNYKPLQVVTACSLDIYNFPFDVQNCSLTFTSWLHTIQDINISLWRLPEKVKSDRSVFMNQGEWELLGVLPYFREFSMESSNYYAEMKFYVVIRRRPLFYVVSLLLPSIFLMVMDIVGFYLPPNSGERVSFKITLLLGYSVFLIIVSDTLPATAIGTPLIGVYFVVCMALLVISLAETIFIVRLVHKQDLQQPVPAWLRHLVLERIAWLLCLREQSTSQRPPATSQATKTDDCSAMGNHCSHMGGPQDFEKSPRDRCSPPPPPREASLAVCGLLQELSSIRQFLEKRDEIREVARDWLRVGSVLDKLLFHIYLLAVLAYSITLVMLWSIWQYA
# Experimental: (§1) HEK293 cells were cultured in plastic dishes (Becton Dickinson, No. 353001), in Dulbecco's modified Eagle's medium (GIBCO, No. 21885-025), supplemented with 10% heat-inactivated fetal bovine serum. The cDNA of the human ligand-gated ion channel 5-HT3A was purchased from Invitrogen (Ultimate ORF clone collection, HORF01), and subcloned into the expression plasmid pcDNA3 (Invitrogen, No. V790-20), applying standard molecular biology methods. The construction of an expression plasmid for the voltage-gated potassium channel Kv1.3 was as described in J. Kupper: Functional expression of GFP-tagged Kv1.3 and Kv1.4 channels in HEK 293 cells. Eur. J. Neurosci. 10, 3908-12 (1998). The cells were stably transfected with one of the two expression plasmids using Geneticin (GIBCO, No. 11811-064), as the selection antibiotic (500 μg/ml). After generation of stable cell lines, the cells were transiently transfected with the other of the two expression plasmids together with the EGFP-C1 plasmid (BD Biosciences Clontech, No. 632317), which served as control for successful transfection. Transfections were done using the Effectene method (Qiagen, No. 301425), at 60-80% confluency.
# Silicon chips as described in M. Voelker, P. Fromherz: Signal transmission from individual mammalian nerve cell to field-effect transistor. Small 1, 206-210 (2005) with 128 Field Effect Transistors (FET) in two linear arrays and a culture chamber on top were cleaned, sterilized under UV-light and coated with 10 μg/ml fibronectin (Sigma, No. F2006). Cells were plated on these chips under normal culture conditions one day after transient transfection, and measurements were done one day after plating. Cells on transistor gates with the transiently expressed channels were identified by the green EGFP fluorescence.
# During experiments the cells were flushed permanently with standard extracellular solution, consisting of (in mM): KCl 5.4, NaCl 135, CaCl2 1.8, MgCl2 1 Glucose 10, Hepes 5 (pH adjusted to 7.4 with NaOH). The ligands serotonin, CPBG (agonists of 5-HT3A) tropisetron and margatoxin (antagonists of 5-HT3A and Kv1.3, respectively), were obtained from Sigma (No. H9523, C144, T104, M8278), and dissolved in extracellular solution.
# Ligand solutions were applied rapidly (ms range), with a double barrelled glass pipette (Theta-Tube), connected to a piezoelectric actuator (Burleigh, LSS-3100). Different ligand solutions were directed to the glass pipette by an eight-channel valve control system (ALA, BPS-8).
# During application of ligands, the voltage in the cleft between transfected cells and the chip surface was probed with the gates of Field Effect Transistors under the cells.
# [2] = target: T1, ligand-gated ion channel 5-HT3A; assay: FET recording of junction voltage of HEK293 cells expressing only 5-HT3A
# Experimental: as §1, with “Transfections were done using the Effectene method (Qiagen, No. 301425), at 60-80% confluency.” left out
# (§2) Silicon chips as described in M. Voelker, P. Fromherz: Signal transmission from individual mammalian nerve cell to field-effect transistor. […] Cells on transistor gates with the transiently expressed channels were identified by the green EGFP fluorescence. […]
# [3] = target: T2, voltage-gated channel Kv1.3 (Homo sapiens, UniProt P22001); assay: FET recording of junction voltage of HEK293 cells expressing only Kv1.3
# T2 construct: expressed in transfected cells; host or cells: HEK293
# Experimental: as §1, with “Transfections were done using the Effectene method (Qiagen, No. 301425), at 60-80% confluency.” left out
# as §2
# [4] = target: T3, voltage-gated potassium channel Kv1.3 (Homo sapiens, UniProt P22001); assay: FET recording of the extracellular (junction) voltage signal of HEK293 cells doubly transfected with 5-HT3A and Kv1.3, blocker of Kv1.3
# T3 construct: expressed in transfected cells; host or cells: HEK293
# Experimental: as §1, with “Transfections were done using the Effectene method (Qiagen, No. 301425), at 60-80% confluency.” left out
# as §2
# T3 sequence (P22001 whole entry): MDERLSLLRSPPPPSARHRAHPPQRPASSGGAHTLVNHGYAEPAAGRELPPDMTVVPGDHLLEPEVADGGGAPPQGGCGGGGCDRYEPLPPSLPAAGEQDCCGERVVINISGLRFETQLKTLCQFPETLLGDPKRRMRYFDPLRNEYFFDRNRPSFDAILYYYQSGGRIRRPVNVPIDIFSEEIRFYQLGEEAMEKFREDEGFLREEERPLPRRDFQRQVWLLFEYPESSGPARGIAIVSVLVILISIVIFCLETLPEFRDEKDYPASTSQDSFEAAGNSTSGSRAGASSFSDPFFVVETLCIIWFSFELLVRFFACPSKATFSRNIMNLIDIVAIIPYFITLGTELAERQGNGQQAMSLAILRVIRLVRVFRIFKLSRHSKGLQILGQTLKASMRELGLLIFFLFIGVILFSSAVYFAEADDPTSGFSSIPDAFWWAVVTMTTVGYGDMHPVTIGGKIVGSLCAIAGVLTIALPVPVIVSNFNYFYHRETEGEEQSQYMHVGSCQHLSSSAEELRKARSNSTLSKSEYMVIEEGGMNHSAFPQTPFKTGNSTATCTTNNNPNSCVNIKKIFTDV
# T2 sequence (P22001 whole entry): as above
compound,measurement,setting,value
NC(N)=NC(N)=Nc1cccc(Cl)c1 [CPBG],extracellular voltage signal in the cell-chip junction on application of agonist,[1],triggered a biphasic voltage signal; also recorded: caused a biphasic voltage signal
NCCc1c[nH]c2ccc(O)cc12 [serotonin],extracellular voltage signal in the cell-chip junction on application of agonist,[1],triggered a biphasic voltage signal; also recorded: Biphasic extracellular voltage signal; also recorded: caused a biphasic voltage signal
same,voltage signal in the cell-chip junction upon stimulation with serotonin,[2],failed to cause a voltage signal
same,voltage signal in the cell-chip junction upon stimulation with serotonin,[3],failed to produce a signal
CN1[C@@H]2CC[C@H]1C[C@@H](OC(=O)c1c[nH]c3ccccc13)C2 [tropisetron],effect on the serotonin-induced extracellular voltage signal,[1],blocked the signal
same,effect on the serotonin-induced extracellular voltage signal,[1]; listed as Tropisetron,The signal was lost
"margatoxin (TIINVKCTSPKQCLPPCKAQFGQSAGAKCMNGKCKCYPH; UniProt P40755 1-39, looked up)",effect on the serotonin-induced extracellular voltage signal,"[4]; 5 nM margatoxin present during 100 μM serotonin stimulation, doubly transfected cell",The signal was reduced; also recorded: blocked the signal
same,serotonin-triggered signal after removal of margatoxin (reversibility),"[4]; same cell, after removal of 5 nM margatoxin",A biphasic voltage signal was recovered
